Reference: patent publication US6630431B2, “Nail polish lacquer remover” (Board of Trustees of Michigan State University, priority 2001, dated 2003)

Legend:
[1] = Vapor pressure; type: physicochemical; settings: @ 20° C.
Protocol: The vapor pressure of ethyl lactate is 1.6 mmHg @ 20° C. and for diethyl succinate is 0.2 mmHg @ 20° C. These are very favorable for a nail polish removing lacquer.

[2] = animals; cited from earlier work

SMILES | vapor pressure [1] [mmHg] | LD50 data [2]
CCOC(=O)CCC(=O)OCC [diethyl succinate] | 0.2 | very large doses are required to produce toxic results
CCOC(=O)C(C)O (stereo not shown) [ethyl lactate] | 1.6 | very large doses are required to produce toxic results
